Source: patent US20250230193A1, “CYCLIC COMPOUND HAVING SELECTIVE KRAS INHIBITORY EFFECT ON HRAS AND NRAS” (CHUGAI SEIYAKU KABUSHIKI KAISHA, priority 2022, published 2025)

What was measured:
[1] = molecular target: GDP-bound HRAS wild-type protein (Homo sapiens, UniProt P01112); test: Binding to HRAS by surface plasmon resonance (SPR), Single Cycle Kinetics
[2] = molecular target: GDP-bound NRAS wild-type protein (Homo sapiens, UniProt P01111); test: Binding to NRAS by surface plasmon resonance (SPR), Single Cycle Kinetics
GDP-bound NRAS wild-type protein, sequence (P01111 whole entry): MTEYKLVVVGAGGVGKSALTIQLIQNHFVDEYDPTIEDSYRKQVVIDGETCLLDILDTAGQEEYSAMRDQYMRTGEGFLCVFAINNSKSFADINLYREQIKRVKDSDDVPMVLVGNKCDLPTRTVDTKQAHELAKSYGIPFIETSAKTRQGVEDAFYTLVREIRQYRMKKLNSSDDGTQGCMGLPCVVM

[3] = SPR, GDP-bound HRAS wild-type vs GDP-bound KRAS wild-type
[4] = SPR, GDP-bound NRAS wild-type vs GDP-bound KRAS wild-type
[5] = KD ratio, GDP-bound HRAS wild-type vs GDP-bound KRAS wild-type, SPR
[6] = KD ratio, GDP-bound NRAS wild-type vs GDP-bound KRAS wild-type, SPR
[7] = SPR, GDP-bound wild-type proteins

GDP-bound HRAS wild-type protein, sequence (P01112 whole entry): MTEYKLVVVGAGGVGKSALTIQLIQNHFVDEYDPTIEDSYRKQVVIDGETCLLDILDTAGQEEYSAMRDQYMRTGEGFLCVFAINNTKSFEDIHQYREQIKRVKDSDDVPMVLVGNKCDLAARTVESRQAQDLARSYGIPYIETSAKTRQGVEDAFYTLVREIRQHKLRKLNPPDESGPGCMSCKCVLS

CCC(CC)[C@H]1C(=O)N(C)[C@H](C(=O)N(C)C)CC(=O)N(C)[C@@H](COC)C(=O)N[C@@H]([C@@H](C)CC)C(=O)N(C)CC(=O)N(C)[C@H]2C/C=C\CCN(C2=O)[C@@H](Cc2ccc(C(F)(F)F)cc2)C(=O)N(C)CC(=O)N[C@@H](CCc2ccc(C(F)(F)F)c(Cl)c2)C(=O)N2CC3(CC3)C[C@H]2C(=O)NC2(CC(C)(C)C2)C(=O)N1C [PP2965]
HRAS/KRAS (ratio of KD value with respect to GDP-bound HRAS wild-type protein to KD value with respect to KRAS) ([1]; class symbols): A (a compound having 10 or more and less than 20 is denoted as A)
NRAS/KRAS (ratio of KD value with respect to GDP-bound NRAS wild-type protein to KD value with respect to KRAS) ([2]; class symbols): AA (a compound having 20 or more is denoted as AA)

CCCOC[C@H]1C(=O)N[C@@H]([C@@H](C)CC)C(=O)N(C)CC(=O)N(C)[C@H]2C/C=C\CCN(C2=O)[C@@H](Cc2ccc(C)cc2)C(=O)N(C)CC(=O)N[C@@H](CCc2ccc(C(F)(F)F)c(OC)c2)C(=O)N2C[C@H](OCC)C[C@H]2C(=O)NC2(CC(C)(C)C2)C(=O)N(C)[C@@H](C2CCCC2)C(=O)N(C)[C@H](C(=O)N(C)CC)CC(=O)N1C [PP2463]
HRAS/KRAS (ratio of KD value with respect to HRAS to KD value with respect to KRAS) [1, 3]: A (a compound having 10 or more and less than 20 is denoted as A)
NRAS/KRAS (ratio of KD value with respect to NRAS to KD value with respect to KRAS) [2, 4]: A (a compound having 10 or more and less than 20 is denoted as A)

CC[C@H](C)[C@@H]1NC(=O)[C@H](COC)N(C)C(=O)C[C@@H](C(=O)N(C)C)N(C)C(=O)[C@H](C2CCCC2)N(C)C(=O)C2(CC(C)(C)C2)NC(=O)[C@@H]2C[C@@H](OC(C)C)CN2C(=O)[C@H](CCc2ccc(Cl)c(Cl)c2)NC(=O)CN(C)C(=O)[C@H](CC2CCCCC2)N2CC/C=C\C[C@@H](C2=O)N(C)C(=O)CN(C2CC2)C1=O [PP2513]
HRAS/KRAS (ratio of KD value with respect to HRAS to KD value with respect to KRAS) [1, 3]: A (a compound having 10 or more and less than 20 is denoted as A)
NRAS/KRAS (ratio of KD value with respect to NRAS to KD value with respect to KRAS) [2, 4]: A (a compound having 10 or more and less than 20 is denoted as A)

CCC[C@H]1C(=O)N[C@@H]([C@@H](C)CC)C(=O)N(C)CC(=O)N(C)[C@H]2C/C=C\CCN(C2=O)[C@@H](Cc2ccc(C)cc2)C(=O)N(C)CC(=O)N[C@@H](CCc2cc(F)c(C(F)(F)F)c(F)c2)C(=O)N2C[C@H](CC)C[C@H]2C(=O)NC2(CCCC2)C(=O)N(C)[C@@H](C2CCCC2)C(=O)N(C)[C@H](C(=O)N(C)C)CC(=O)N1C [PP2216]
HRAS/KRAS (ratio of KD value with respect to HRAS to KD value with respect to KRAS) [1, 3]: A (a compound having 10 or more and less than 20 is denoted as A)
NRAS/KRAS (ratio of KD value with respect to NRAS to KD value with respect to KRAS) [2, 4]: A (a compound having 10 or more and less than 20 is denoted as A)

CCC[C@H]1C(=O)N[C@@H]([C@@H](C)CC)C(=O)N(C)CC(=O)N(C)[C@H]2C/C=C\CCN(C2=O)[C@@H](Cc2ccc(C(F)(F)F)cc2)C(=O)N(C)CC(=O)N[C@@H](CCc2cc(F)c(Cl)c(F)c2)C(=O)N2C[C@H](OCC)C[C@H]2C(=O)NC2(CC(C)(C)C2)C(=O)N(C)[C@@H](C2CCCC2)C(=O)N(C)[C@H](C(=O)N(C)C)CC(=O)N1C [PP1758]
HRAS/KRAS (ratio of KD value for HRAS to KD value for KRAS) [1, 5]: A (a compound having 10 or more and less than 20 is denoted as A)
NRAS/KRAS (ratio of KD value for NRAS to KD value for KRAS) [2, 6]: AA (a compound having 20 or more is denoted as AA)

CCC[C@H]1C(=O)N[C@@H]([C@@H](C)CC)C(=O)N(C)CC(=O)N(C)[C@H]2C/C=C\CCN(C2=O)[C@@H](Cc2ccc(C(F)(F)F)cc2)C(=O)N(C)CC(=O)N[C@@H](CCc2ccc(C(F)(F)F)c(Cl)c2)C(=O)N2CC3(CC3)C[C@H]2C(=O)NC2(CC(C)(C)C2)C(=O)N(C)[C@@H](CC(C)(C)C)C(=O)N(C)[C@H](C(=O)N(C)C)CC(=O)N1C [PP2979]
HRAS/KRAS (ratio of KD value with respect to GDP-bound HRAS wild-type protein to KD value with respect to KRAS) [1, 7]: B (a compound having 3 or more and less than 10 is denoted as B)
NRAS/KRAS (ratio of KD value with respect to GDP-bound NRAS wild-type protein to KD value with respect to KRAS) [2, 7]: A (a compound having 10 or more and less than 20 is denoted as A)

CCO[C@@H]1C[C@H]2C(=O)NC3(CCC3)C(=O)N(C)[C@@H](C3CCCC3)C(=O)N(C)[C@H](C(=O)N(C)C)CC(=O)N(C)[C@@H](Cc3cccc(C#N)c3)C(=O)N[C@@H]([C@@H](C)CC)C(=O)N(C)CC(=O)N(C)[C@H]3CCCCCN(C3=O)[C@@H](Cc3ccc(C(F)(F)F)cc3)C(=O)N(C)CC(=O)N[C@@H](CCc3cc(F)c(C(F)(F)F)c(F)c3)C(=O)N2C1 [PP1172]
HRAS/KRAS (ratio of KD value with respect to HRAS to KD value with respect to KRAS) [1, 5]: B (a compound having 3 or more and less than 10 is denoted as B)
NRAS/KRAS (ratio of KD value with respect to NRAS to KD value with respect to KRAS) [2, 6]: B (a compound having 3 or more and less than 10 is denoted as B)
